Assays:
[1] = target: T1, Staphylococcus aureus lipase (SAL) (Staphylococcus aureus, UniProt A0A0U1MWF9); assay: p-nitrophenyl butyrate hydrolysis, absorbance […] nm; format: biochemical
T1 construct: gene lip; one Ca and one Zn per monomer

[2] = target: Staphylococcus aureus lipase (Staphylococcus aureus); assay: SEC + other: SEC-SAXS

| Compound | IC50 [1] | stoichiometry N [2] |
| --- | --- | --- |
| CCCCCCCCCCC/C=C\CCCCC(=O)O [PSA, petroselinic acid] | 3.4 µM | – |
| CCCCCCCCCCC/C=C\CCCCC(=O)OC [PSM, petroselinic acid methyl ester] | 10.5 µM | – |
| Staphylococcus aureus lipase (from UniProt A0A1R3UHM3 1-645) (enzyme) | – | 2 |

From article PMC11148114 (FEBS Open Bio, 2024)
